# Assay: stability of BTG 1640 hydrochloride salt to temperature
# Assay type: physicochemical
# Conditions: at temperatures above 30° C.
structure (smiles),measurement,value
CN1OC2CCCC(=O)C2C1Cc1ccccc1.Cl (stereo not shown) [hydrochloride salt of BTG 1640],stability to temperature,unstable

# Reference: patent US20110039902A1, “PROCESS FOR PREPARING A CRYSTALLINE FORM COMPOUND OF 3-BENZYL-2-METHYL-2,3,3a,4,5,6,7,7a-OCTAHYDROBENZO[d]ISOXAZOL-4-ONE” (ABIOGEN PHARMA S.P.A., priority 2008, published 2011)
